Experimental findings from the OPERA property sets (Mansouri et al. 2018) are described below.

The structures appear in SMILES notation. Where a SMILES comes first, the peptide text is derived from it.

`Cc1cc(=O)c(O)c(CNC(=O)C(C)C)n1C`: the logP – broadly, a log measure of how a compound divides between an organic and an aqueous phase – was -0.35.
Then `Cc1oc2nc3oc(=O)ccc3c(C)c2c1C`, with 2.19.
Then `O=S(=O)(NC(=S)N1CCCCC1)c1cnccc1NC1CCCCCCC1`, with 4.5; and `C#CC(C)(C)NCC(O)CON=C(C1CC1)C1CC1` (stereo not given), with 1.6; and `C1CCSC1`, with 1.61.
The same measure for `CC(C)(O)C1CCC2(C)CCCC(=O)C2C1` (stereo not given): 1.92; for `CC(C)NC(=NC#N)NS(=O)(=O)c1cnccc1NCc1ccccc1`: 1.36.
For `COc1ccc(CCNCC(O)COc2ccc(OCc3ncc[nH]3)cc2)cc1OC` (stereo not given), the logP stood at 2.6.
Then `C=C1CC2c3c(O)cc(CCCCC)cc3OC(C)(C)C2CC1O` (stereo not given), with 5.24; and `COc1ccccc1CNC1CCCNC1c1ccccc1` (stereo not given), with 3.1.
Then `CCCN(CC)CC(=O)Nc1c(C)cccc1C`, with 2.74.
The same measure for `Cc1nc2c3c(c(C(=O)Nc4ccccc4)cn2c1C)CCC(c1ccccc1)O3` (stereo not given): 5.9; for `CC(C)(CO)N=O`: -0.52; for `CCCCCN(C)CC(=O)Nc1c(C)cccc1C`: 3.2.
`CC=C(C)C1(C)CC(O)=C(C(CCC)=NOCC)C(=O)O1` (stereo not given) returned a logP of 3.4.
Then `CC(=O)NCCCCCN(O)C(=O)CCC(=O)NCCCCCN(O)C(=O)CCC(=O)NCCCCCN(O)C(C)=O`, with -0.03; and `CC(C)CC(NC(=O)C(Cc1ccc(O)cc1)NC(=O)C(N)Cc1ccc(O)cc1)C(=O)O` (stereo not drawn) (H-Tyr-Tyr-Leu-OH; configuration not given here), with -1.38.
Take `CC(=O)c1cc(F)c(Cl)cc1Cl`: the logP was 3.4.
Then `CC(C)CC(NC(=O)C(CC(C)C)NC(=O)C(NC(=O)C(C)N)C(C)C)C(=O)O` (stereo not given) (H-AVLL-OH; configuration not given here), with -1.74; and `CCOC(=O)c1[nH]cc(-c2ccc(Cl)cc2)c1N1CCOCC1`, with 3.9.
The same measure for `CC(=O)OCOC(=O)C(C)c1cccc(C(=O)c2ccccc2)c1` (stereo not given): 3.4; for `OCCN1CCN(CCn2nc3ccccc3n2)CC1`: 0.43.
Turning to `CCCC1C(=O)N(CCN(C)C)c2ccccc2CC1c1ccc(OC)cc1` (stereo not given), the logP is 5.6.
The same measure for `Nc1nnnn1-c1ccc(Cl)cc1`: 1.41; for `Cc1ccc(CO)c(C=NNC(=O)c2cccs2)c1O`: 3.03; for `Fc1cccc(CNc2ncnc3nc[nH]c23)c1`: 2.31.
Then `Cc1ccc(CNc2ncnc3nc[nH]c23)cc1`, with 2.66.
Take `CCc1ccc2c(c1)OCCOCCOCCOCCOCCO2`: the logP is 0.98.
Then `CCOC(=O)C(=Cc1ccccc1)S(=O)(=O)c1ccc([N+](=O)[O-])cc1`, with 3.2; and `Cc1cc2c(o1)c(C)cc1ccc(=O)oc12`, with 2.85.
For the compound `COc1ccc(C2=NC(C)(C(=O)O)CS2)c(O)c1` (stereo not given), the logP amounted to 1.7.
Turning to `CNc1ccc2cc3ccc4c(c3nc2c1CO)COCN4S(C)(=O)=O`, the logP was determined as 1.2.
The same measure for `CC(C)CC(N)C(=O)NC(CC(C)C)C(=O)NC(CC(C)C)C(=O)NC(Cc1ccccc1)C(=O)O` (stereo not given) (H-LLLF-OH; configuration not given here): 0.24; for `COc1ccc2c(c1)C(=O)N(CCO[N+](=O)[O-])CO2`: 2.07.
`CC(C)CC(N)C(=O)NC(CC(C)C)C(=O)N1CCCC1C(=O)O` (stereo not drawn) (H-Leu-Leu-Pro-OH; configuration not given here) came in with a logP of -1.58.
In the case of `COC(=O)c1c(Oc2nc(OC)cc(OC)n2)cccc1C(C)=NOCC=C(Cl)Cl`, the logP amounted to 4.23.
The same measure for `Nc1ccno1`: -0.47; for `CC(C)(O)C1CCC2(C)CCC3(CO3)C2C1` (stereo not given): 2.9.
The same measure for `CON=C(C(=O)NC1C(=O)N2C(C(C)OC(C)=O)=CCSC12)c1csc(N)n1` (stereo not given): 0.46; for `COc1ccc(C2Cc3c(C)cccc3N(CCN(C)C)C(=O)C2OC(C)=O)cc1` (stereo not given): 3.7.
Then `O=C(O)CCCCON=C(c1ccnnc1)c1cccc(C(F)(F)F)c1`, with 2.99; and `CCc1c(O)c(=O)ccn1CCCCO`, with -0.28.
`O=S(=O)(NC(=S)N1CCCCC1)c1cnccc1NC1CCCCCC1`: the logP was determined as 4.15.
Then `COc1c2ccccc2cc2ccccc12`, with 4.36.
The same measure for `CC(=NNC(=O)c1ccc(Br)cc1)c1cnccn1`: 2.9.
Then `COc1ccc(CCNCC(O)COc2ccc(-c3nccs3)cc2)cc1OC` (stereo not given), with 2.5; and `O=C(NCCCCCOCCCN1CCOCC1)NC12CC3CC(CC(C3)C1)C2`, with 2.7; and `CC(c1ccccc1)N1CC(N2CCOCC2)=NC1=O` (stereo not given), with 0.8.
For `CCC(C)C(NC(=O)C(N)Cc1ccc(O)cc1)C(=O)NC(CC(C)C)C(=O)NCC(=O)O` (stereo not given) (H-YILG-OH; configuration not given here), the logP is -1.49.
Then `O=C(Cc1ccccc1)c1c(O)c2ccc(Cl)cc2[nH]c1=O`, with 3.66; and `Cc1coc2cc3oc(=O)cc(C)c3cc12`, with 2.76.
Then `CCN(CC)CCSC(=NO)c1nc(-c2ccccc2)no1`, with 3.05; and `CC(=O)OC1C(CCl)OC(n2cc(F)c(=O)[nH]c2=O)C1OC(C)=O` (stereo not given), with 0.38.
The same measure for `O=C(Nc1ccccc1C(=O)O)c1ccccc1`: 3.54.
`CCC(C)NC(=O)N1C(=O)N(C)CC1O` (stereo not given) displayed a logP of 1.28.
Then `CNC(=O)Oc1ccc2c(c1)CC(c1ccc(OC)cc1)C(OC(C)=O)C(=O)N2CCN(C)C` (stereo not given), with 2.31; and `CN(C/C=C/C#CC(C)(C)C)Cc1cccc2ccccc12`, with 6; and `COc1ccc(O)c(C2=NC(C(=O)O)CS2)c1` (stereo not given), with 1.6.
Then `CC1CC(=O)NN=C1c1ccc(-n2cnc3c2CCCC3)cc1` (stereo not given), with 2.52; and `Cc1ccc(C(=O)OCCCn2ccc(=O)c(O)c2C)cn1`, with 0.28; and `NC(=O)c1cccc(Cn2ccnc2)c1`, with -0.01.
For `COC(=O)C(C)=CC1C(C(=O)OCc2cccc(Oc3ccccc3)c2)C1(C)C` (stereo not given), the logP is 6.48.
The same measure for `CC(=O)N(c1nc(=O)n(C(C)C)c(=O)n1C)C(C)C`: 0.18.
As to `CCOc1cccc(NC(=O)OCCN2CCCCC2)c1`, the logP amounted to 3.77.
The same measure for `Cc1cc2cc3c(C)cc(=O)oc3cc2o1`: 2.82.
The same measure for `Cc1cnc2ccc3c(nc(N)n3C)c2n1`: 1.01.
Then `CCc1cccc(C)c1NC(=O)OC`, with 1.99; and `Oc1ccccc1CNc1ncnc2nc[nH]c12`, with 2.05; and `CN(C)CCOc1c(Cl)cccc1Cl`, with 2.57.
`C=CC(=O)OCCCCCC` had a logP of 3.33.
Then `CC(=O)c1ccc(Br)cc1O`, with 3.15.
In turn, `CC(C)C(NC(=O)C(N)Cc1ccccc1)C(=O)O` (stereo not drawn) (H-Phe-Val-OH; configuration not given here) registered a logP of -1.68.
In the case of `CCOC(=O)C1=C(C)NC(C)=C(C(=O)OC)C1c1cccc(OC)c1OC` (stereo not given), the logP amounted to 3.58.
The same measure for `COc1cccc(CCl)c1`: 2.68; for `OCCCCCCNc1ncnc2nc[nH]c12`: 1.14.
Then `COC1=CC(=O)c2c(c(COC(N)=O)c3n2CCC3OC(C)=O)C1=O` (stereo not given), with 0.72; and `CC(C)CCNc1ncnc2c1ncn2C1OC(CO)C(O)C1O` (stereo not given), with 1.6.
In the case of `Cc1cc(=O)n(C)c2c1cc(C)c1occ(C)c12`, the logP came out at 3.3.
Then `CN(C)CC(c1ccccc1)c1ccccc1`, with 3.58; and `CS(=O)(=O)c1cccc2nc(N)nc(N)c12`, with 0.63; and `COC(=O)C(C)NP(=O)(OCC1C=CC(n2cc(C)c(=O)[nH]c2=O)O1)Oc1ccc(Cl)c(Cl)c1` (stereo not given), with 2.15.
Then `FC(F)(F)c1ccc(CNc2[nH]cnc3ncnc2-3)cc1`, with 3.19; and `Cc1cc(=O)[nH]nc1/C=C/c1ccc(-n2ccnc2)cc1`, with 1.71.
In the case of `NC(=S)NN=C(c1ccccc1)c1ccccn1`, the logP is 1.92.
`Nc1nnnn1-c1cccc2ccccc12` had a logP of 1.72.
Compound `Cc1oc2nc3oc(=O)c(C)c(C)c3cc2c1C` returned a logP of 2.71.
The same measure for `Cc1sc2c(C)cc3c(C)cc(=O)oc3c2c1C`: 4.09; for `O=C1c2ccccc2-c2nnccc21`: 1.22.
Then `CCCCCCNCCO`, with 1.67.
The same measure for `CC(C)Oc1cccc2nc(N)nc(N)c12`: 2.05; for `CCOC(=O)CCCn1cc([N+](=O)[O-])nc1C`: 0.58; for `N#CNc1ccccc1`: 1.87.
`Cc1nc2c3c(c(C(=O)N4CCC4)cn2c1C)CCC(c1ccccc1)O3` (stereo not given) yielded a logP of 3.4.
Then `COc1ccc(CCNCC(O)COc2ccc(-c3nc(Br)c[nH]3)cc2Cl)cc1OC` (stereo not given), with 4.3; and `CCCCNCC(C)O` (stereo not given), with 1.22.
The same measure for `CCOC1N=C(c2ccccc2)c2cc(Cl)ccc2N(CCCl)C1=O` (stereo not given): 3.95.
Then `CCC(C)C(N)C(=O)NC(C(=O)NC(C(=O)O)C(C)O)C(C)CC` (stereo not drawn) (H-Ile-Ile-Thr-OH; configuration not given here), with -2.23; and `CC(C)CCCCNc1[nH]cnc2ncnc1-2`, with 3.61.
For the compound `CCCc1nc(N)nc(N2CCCCC2)n1`, the logP came out at 2.55.
The same measure for `CN(C)CCOc1ccc(Cl)cc1`: 3.05; for `CCCCCNc1ncnc2c1ncn2C1OC(CO)C(O)C1O` (stereo not given): 1.67.
Then `CC(=O)N(O)CCCCCNC(=O)CCC(=O)N(O)CCCCCNC(=O)CCC(=O)N(O)CCCCCNC(=O)CCC(=O)O`, with -0.51; and `CC(C)NC(=NC#N)NS(=O)(=O)c1cnccc1NC1CCCC1`, with 0.98.
For the compound `COC(=O)CNC(=O)Cn1c(C)nc2ccccc2c1=O`, the logP was determined as 0.4.
The same measure for `CC(C)(C)SSc1ncc[nH]1`: 2.56.
The same measure for `CCCCOc1cccc2nc(N)nc(N)c12`: 2.81; for `Nc1nc(N)nc(-c2ccc(SC(F)(F)F)cc2)n1`: 3.2; for `O=C(O)CCCON=C(c1ccccc1)c1ncccn1`: 1.64.
The same measure for `COC(=O)C=CCn1cnc([N+](=O)[O-])n1`: 0.09; for `CCOc1cc2ncnc(Nc3cccc(F)c3)c2cc1OCC`: 3.71.
